Read-outs that look alike come from different tables or passages of the source.
What was measured:
[1] = Rat pharmacokinetics; assay type: in vivo, Wistar rats; details: for AUC(0-inf) / Cmax / Tmax / AUC(0-t): Wistar; for AUC(0-inf): read-out: Plasma AUCinf; for AUC(0-t): read-out: Plasma AUClast
Method: Blood samples were collected at 0, 0.08 (for IV only), 0.25, 0.5, 1, 2, 4, and 6 (Only for PO) 8 and 24 hr for IV and PO group and at three rats were euthanized by using excess CO2 asphyxiation, each at 0.25, 1 and 4 hr post dose and brain was collected. The study was conducted at Sai Advantium Pharma Limited, Pune, India, in accordance with the guidelines of the Institutional Animal Ethics Committee (IAEC). Prior approval was obtained before initiation of the study (IAEC Protocol No. IAEC/PRT/006-11).
Blood samples were collected from each rat at 0.5, 1, 2, 4, 6, 8, 12, and 24 hr (oral gavage) or at 2, 4, 6, 8, 12, 24, 25, 27, 30 and 48 hr (drinking water) were collected from the retro-orbital plexus into labeled tubes, containing K2EDTA solution, as an anticoagulant. Animals were euthanized by using excess CO2 asphyxiation. […] Prior approval was obtained before initiation of the study (IAEC Protocol No. FB-14-069-R-089; IAEC-CPCSEA).
Plasma was harvested from the blood samples harvested in K2EDTA containing tubes by centrifugation at 4000 rpm for 10 min at 4 ± 2 °C and stored below -70 °C until bioanalysis. Brain tissue was homogenized with phosphate buffer saline (pH 7.4). Total homogenate volume was thrice the tissue weight. All samples were processed for analysis by precipitation using Imipramine as internal standard and analyzed with partially validated LC-MS/MS method. Pharmacokinetic parameters were calculated using the non-compartmental analysis tool of WinNonlin® Enterprise software (Pharsight Corp., USA; version 5.2).
Compound levels from 3 samples per timepoint (for a given dose and route of administration), were used to calculated pharmacokinetic parameters using the non-compartmental analysis tool of WinNonlin® Enterprise software (Pharsight Corp., USA; version 5.2).

[2] = tested on: SAMP8 mice; experiment: Novel Object Recognition Test (NORT); assay type: in vivo, mouse
Method: (§1) Both male and female mice from the senescence accelerated strain SAMP8 and its control SAMR1 of different ages (see Table S3 for details) were used in these studies. Mice were breed in the animal facilities of the Pharmacy Faculty (University of Barcelona), maintained in a at 22 ± 2 °C controlled temperature in a 12 hr light / dark cycle (lights on at 8:00 am; 300 lux/0 lux) with ad libitum access to food (2018 TEKLAD, Harlan) and water. Male mice were housed individually (males) or in groups of 4-5 animals (females) in plastic colony boxes with a sawdust bedding material. […] SAMR1 mice treated with vehicle were included as a control. All drugs were administered via drinking water and diluted in vehicle. Drug concentration was calculated weekly in function of body weight and corrected in function of drinking water consumption. Cognitive function was evaluated by NORT, social behavior was evaluated by RI and anxiety and motor function were evaluated by EPM and OF. When necessary, animals were deeply anesthetized (80 mg/kg sodium pentobarbital) and brain samples (hippocampus, (prefrontal) cortex) were micro-dissected and processed according to the downstream analysis.
The protocol was performed as previously described. Briefly, animals were placed in a 90°- two-arm maze. Mice were habituated to the apparatus for 10 min during 3 consecutive days. On day 4, two identical novel objects (A+A or B+B) were placed at the end of each arm and animals performed a 10-min acquisition trial. A 10-min retention trial was carried out 2 hr after the acquisition trial with object A and B. Time exploring the novel (NO) and the familiar object (FO) was measured and a discrimination Index (DI) was defined as (NO-FO)/(NO+FO). In some experiments, a more restrictive threshold was applied and animals exploring less than 5 sec (NO+FO) were excluded from the analysis (Table S3).
Novel Object Recognition Test (NORT): Time exploring the novel (NO) and the familiar object (FO) was measured and a discrimination Index (DI) was defined as (NO-FO)/(NO+FO). In some experiments, a more restrictive threshold was applied and animals exploring less that 5 sec (NO+FO) were excluded from the analysis (Table S3). Open Field (OF): Locomotor activity was analyzed by video-tracking over the captured images using SMART® (v 2.5.21 (rat) or v3.0 (mice), PanLab, SLU, Spain).

[3] = tested on: SAMP8 mice; experiment: Open Field (OF); assay type: in vivo, mouse; details: 0.32 or 0.96 mg/kg/day
Method: as §1, with “All drugs were administered via drinking water and diluted in vehicle.” left out, “When necessary, animals were deeply anesthetized (80 mg/kg sodium pentobarbital) and brain samples (hippocampus, (prefrontal) cortex) were micro-dissected and processed according to the downstream analysis.” left out
A 50 × 50-cm white plastic arena with 25-cm-high walls was used to analyze spontaneous exploratory behavior. […] The movements of each animal were video recorded during 5 min. Locomotor activity was analyzed by video-tracking over the captured images using SMART® (v 2.5.21 (rat) or v3.0 (mice), PanLab, SLU, Spain).
Novel Object Recognition Test (NORT): Time exploring the novel (NO) and the familiar object (FO) was measured and a discrimination Index (DI) was defined as (NO-FO)/(NO+FO). […]

[4] = tested on: SAMP8 mice; experiment: Elevated Plus Maze (EPM), SAMP8; assay type: in vivo, mouse; details: 0.32 or 0.96 mg/kg/day
Method: as §1, with “All drugs were administered via drinking water and diluted in vehicle.” left out, “When necessary, animals were deeply anesthetized (80 mg/kg sodium pentobarbital) and brain samples (hippocampus, (prefrontal) cortex) were micro-dissected and processed according to the downstream analysis.” left out
The EPM consisted of four arms at right angles to each other connected to a central square and maintained elevated 50 cm above the floor. […] The animal was placed facing a closed arm, and its movements were video-recorded for 5 min and analyzed by video-tracking using SMART® (v3.0, PanLab, SLU, Spain).
Elevated Plus Maze (EPM): Movements were video-recorded for 5 min and analyzed by video-tracking using SMART® (v3.0, PanLab, SLU, Spain).

[5] = Wistar rats, oral gavage 10 mg/kg
[6] = male, rat, plasma, po, 5.6 mg/kg/day, Wistar rats, oral drinking water 0.25mg/ml (5,6 mg/kg)
[7] = male, rat, plasma, po, 10 mg/kg, Wistar rats, oral drinking water, dose normalized to 10 mg/Kg
[8] = male, rat, plasma, po, 10 mg/kg, Wistar rats, oral gavage 10 mg/kg
[9] = male, rat, plasma, po, 10 mg/kg, Wistar rats, oral gavage 10 mg/kg (second gavage column)
[10] = male, rat, plasma, po, 10 mg/kg, Wistar rats, oral gavage 10 mg/kg (second gavage column, gavage vs drinking water study)
[11] = male, rat, plasma, Wistar rats, intravenous 2 mg/kg

Structure (SMILES): Nc1nnc(CN[C@@H]2C[C@H]2c2ccc(OCc3ccccc3)cc2)o1 [ORY-2001, vafidemstat]
- Brain Cmax [1, 5]: 4957 ng/g
- Fpo [1, 5]: 95%
- time for brain compound levels to return to baseline ([1]; brain pharmacokinetics (S2A Table)): less than 1 days
- AUC(0-inf) ([1]; male, rat, plasma, iv, 2 mg/kg, Wistar rats, intravenous 2 mg/kg): 3910 ng·h/mL
- Cmax [1, 6]: 945 ng/mL
- Tmax [1, 6]: 8.67 h
- AUC(0-t) ([1]; male, rat, plasma, po, 5.6 mg/kg/day, Wistar rats, oral drinking water 0.25mg/ml (5,6 mg/kg), ad libitum 24 hr): 12000 ng·h/mL
- AUC(0-inf) [1, 6]: 12100 ng·h/mL
- Cmax [1, 7]: 1690 ng/mL
- Tmax [1, 7]: 8.67 h
- AUC(0-t) ([1]; male, rat, plasma, po, 10 mg/kg, Wistar rats, oral drinking water, dose normalized to 10 mg/Kg considering a linear behavior): 21500 ng·h/mL
- AUC(0-inf) [1, 7]: 21700 ng·h/mL
- Cmax [1, 8]: 3400 ng/mL
- Tmax [1, 8]: 0.833 h
- Cmax [1, 9]: 5970 ng/mL
- Tmax [1, 9]: 2 h
- AUC(0-inf) [1, 10]: 35600 ng·h/mL
- AUC(0-t) [1, 10]: 32900 ng·h/mL
- AUC(0-inf) [1, 8]: 21000 ng·h/mL
- AUC ([1]; male, rat, plasma, po, Wistar rats, p.o. 10 mg/kg, read-out: area-under-the-curve (AUC) (converted)): 21000 ng·h/mL
- clearance [1, 11]: 8.5 mL/min/kg
- half-life [1, 11]: 1.87 h
- Vd ([1]; male, rat, plasma, Wistar rats, intravenous 2 mg/kg, read-out: Vss): 1.2 L/kg
- half-life ([1]; male, rat, plasma, Wistar rats, oral gavage 10 mg/kg): 3.28 h
- NORT discrimination capacity ([2]; 0.32 and 0.96 mg/kg/day (Exp3, Exp4)): completely restored the discrimination capacity
- NORT discrimination capacity, short treatment ([2]; 5 day treatment at 0.96 mg/kg/day (Exp5)): equally effective as a one month treatment
- NORT performance of aged SAMP8 mice ([2]; eight month old, treated 4 months (Exp7)): fully rescued the performance
- rescue of NORT discrimination deficit ([2]; lowest dose (0.11 mg/kg/day)): ~ 50%
- locomotor activity in the OF test [3]: no significant genotype or treatment differences
- time in the open arms of the EPM [4]: not significantly modified
